In patent publication US11466044B2 (WAYNE STATE UNIVERSITY, priority 2017, dated 2022):
Values after ≈ are worked out from the molar mass of the structure shown.

What was measured:
N. gonorrhoeae = experiment: Disk diffusion, N. gonorrhoeae; format: cell-based; conditions: 25 nmol
[1] = system: E coli carrying specific resistance determinants; experiment: MIC by broth microdilution, E coli carrying specific resistance determinants; format: cell-based
MRSA = experiment: MIC by broth microdilution, MRSA isolates; format: cell-based; conditions: Table 1 (Example 2); for MIC50 MRSA AG38: strain AG38; for MIC50 MRSA AG39: strain AG39; for MIC50 MRSA AG42: strain AG42; for MIC50 MRSA AG44: strain AG44
[2] = system: Enterobacter cloacae AG290; experiment: MIC by broth microdilution, Enterobacter cloacae; format: cell-based; conditions: strain AG290 Enterobacter cloacae
P aeruginosa = experiment: MIC by broth microdilution, P aeruginosa isolates; format: cell-based, Pseudomonas aeruginosa; conditions: for MIC AG220 P. aerugin: strain AG220 Pseudomonas aeruginosa ATCC27853
M. smegmatis SZ380 = experiment: MIC by broth microdilution, M. smegmatis; conditions: strain SZ380 Mycobacterium smegmatis
E coli wild type = experiment: MIC by broth microdilution, wild type E coli; format: cell-based; conditions: for MIC50 E coli BM13 (AG06) wt: Table 2A (Example 2); for MIC50 E coli pH430 WT: Table 2B (Example 2); for MIC50 E coli AG01: strain AG01; for MIC50 E coli AG01 / MIC50 E coli AG03 / MIC50 E coli AG55: Table 1 (Example 2); for MIC50 E coli AG03: strain AG03; for MIC50 E coli AG55: strain AG55; for MIC AG212 E. coli: strain AG212 E. coli (ATCC25922)
[3] = system: Acinetobacter baumannii pittii AG225; experiment: MIC by broth microdilution, Acinetobacter baumannii; format: cell-based; conditions: strain AG225 Acinetobacter baumannii pittii
[4] = system: Klebsiella pneumonia AG215; experiment: MIC by broth microdilution, Klebsiella pneumonia; format: cell-based; conditions: strain AG215 Klebsiella pneumonia

| Structure (SMILES) | Disk diffusion 25 nmol N. gonorrhoeae (N. gonorrhoeae) [mm] | MIC50 E coli AG036 ANT(4′,4″) ([1]; Table 2B (Example 2)) [µg/mL] | MIC50 E coli AG037 APH(3′)-III ([1]; Table 2B (Example 2)) [µg/mL] | MIC50 E coli AG103 armA ([1]; Table 2B (Example 2)) [µg/mL] | MIC50 E coli pH414 AAC(6′)-I ([1]; Table 2B (Example 2)) [μg/ml] | MIC50 E coli pH415 AAC(6′)-II ([1]; Table 2B (Example 2)) | MIC50 E coli pH421 APH(3′)-I ([1]; Table 2B (Example 2)) [μg/ml] | MIC50 E coli pH422 APH(3′)-II ([1]; Table 2B (Example 2)) [μg/ml] | MIC50 E coli pH423 APH(3)-VI ([1]; Table 2B (Example 2)) [μg/ml] | MIC50 E coli pH432 ANT(4′) ([1]; Table 2B (Example 2)) [μg/ml] | MIC50 MRSA AG38 (MRSA) [µg/mL] | MIC50 MRSA AG39 (MRSA) [µg/mL] | MIC50 MRSA AG42 (MRSA) [µg/mL] | MIC50 MRSA AG44 (MRSA) [µg/mL] | MIC AG290 E. cloacae [2] [µg/mL] | MIC AG220 P. aerugin (P aeruginosa) [µg/mL] | MIC SZ380 M. smegmatis (M. smegmatis SZ380) [µg/mL] | MIC50 E coli BM13 (AG06) wt (E coli wild type) [µg/mL] | MIC50 E coli pH430 WT (E coli wild type) | MIC50 E coli AG01 (E coli wild type) [µg/mL] | further results |
| --- | --- | --- | --- | --- | --- | --- | --- | --- | --- | --- | --- | --- | --- | --- | --- | --- | --- | --- | --- | --- | --- |
| C[C@@H](O)[C@H]1O[C@H](O[C@H]2[C@H](O[C@@H]3O[C@H](CO)[C@@H](O[C@H]4O[C@@H](CN)[C@@H](O)[C@H](O)[C@H]4N)[C@H]3O)[C@@H](O)[C@H](N)C[C@@H]2N)[C@H](N)[C@@H](O)[C@@H]1O [Compound 155, 6′(R)-6′-C-Methylparomomycin] | 8 | >32 | >32 | 8 (≈ 12.7 µM) | 2 | 2 μg/ml | >32 | >32 | >32 | 2 | 8 (≈ 12.7 µM) | >64 | >64 | 4 (≈ 6.35 µM) | 2 to 4 | >32 | 4 (≈ 6.35 µM) | 2 (≈ 3.18 µM) | 1-2 μg/ml | 8 to 16 | MIC50 E coli AG03 (E coli wild type): 8 to 16 µg/mL; MIC50 E coli AG55 (E coli wild type): 8 to 16 µg/mL; MIC AG212 E. coli (E coli wild type): 4 µg/mL (≈ 6.35 µM); MIC AG225 A. baumannii [3]: 4 µg/mL (≈ 6.35 µM); MIC AG215 K. pneumon [4]: 2 µg/mL (≈ 3.18 µM) |
| CC(O)C1OC(OC2C(N)CC(N)C(O)C2OC2OC(CO)C(OC3OC(CN)C(O)C(O)C3N)C2O)C(N)C(O)C1O (stereo not shown) [Compound 156] | 10 | 32 to 64 | >32 | 1 (≈ 1.59 µM) | 1 | 1 μg/ml | >32 | >32 | >32 | 1 | 4 to 8 | >128 | >128 | 2 to 4 | 1 (≈ 1.59 µM) | >32 | 0.5 (≈ 0.794 µM) | 1 (≈ 1.59 µM) | 1 μg/ml | 4 (≈ 6.35 µM) | MIC50 E coli AG03 (E coli wild type): 4 to 8 µg/mL; MIC50 E coli AG55 (E coli wild type): 4 µg/mL (≈ 6.35 µM); MIC AG212 E. coli (E coli wild type): 2 µg/mL (≈ 3.18 µM); MIC AG225 A. baumannii [3]: 2 µg/mL (≈ 3.18 µM); MIC AG215 K. pneumon [4]: 1 µg/mL (≈ 1.59 µM) |
| CC(N)C1OC(OC2C(N)CC(N)C(O)C2OC2OC(CO)C(OC3OC(CN)C(O)C(O)C3N)C2O)C(N)C(O)C1O (stereo not shown) [Compound 166] | 12 | 16 (≈ 25.5 µM) | >64 | 1 (≈ 1.59 µM) | 0.5 | 1-2 μg/ml | >32 | >32 | >32 | 0.5 | 2 (≈ 3.18 µM) | >128 | >128 | 1 (≈ 1.59 µM) | 0.5 (≈ 0.795 µM) | >32 | 0.125 to 0.25 | 0.5 to 1 | 0.5 μg/ml | 2 (≈ 3.18 µM) | MIC50 E coli AG09 AAC(6′) ([1]; AG09 AAC(6′), Table 2A (Example 2)): 0.5 µg/mL (≈ 0.795 µM); MIC50 E coli AG036 ANT(4′,4″) ([1]; Table 2A (Example 2)): 16 µg/mL (≈ 25.5 µM); MIC50 E coli AG037 APH(3′,5″) ([1]; AG037 APH(3′,5″), Table 2A (Example 2)): >64 µg/mL; MIC50 P aeruginosa AG31 (P aeruginosa; strain AG31, Table 1 (Example 2)): ≥128 µg/mL; MIC50 P aeruginosa AG32 (P aeruginosa; strain AG32, Table 1 (Example 2)): 128 µg/mL (≈ 204 µM); MIC50 P aeruginosa AG33 (P aeruginosa; strain AG33, Table 1 (Example 2)): ≥128 µg/mL; MIC50 P aeruginosa AG86 (P aeruginosa; strain AG86, Table 1 (Example 2)): 16 µg/mL (≈ 25.5 µM); MIC50 E coli AG03 (E coli wild type): 2 µg/mL (≈ 3.18 µM); MIC50 E coli AG55 (E coli wild type): 2 µg/mL (≈ 3.18 µM); MIC AG212 E. coli (E coli wild type): 1 µg/mL (≈ 1.59 µM); MIC AG225 A. baumannii [3]: 1 µg/mL (≈ 1.59 µM); MIC AG215 K. pneumon [4]: 0.25 to 0.5 µg/mL |
